Reference: patent publication US20080248032A1, “COMPOSITIONS AND METHODS FOR PROTECTION AGAINST CARDIAC AND/OR CENTRAL NERVOUS SYSTEM TISSUE INJURY BY INHIBITING SPHINGOSINE-1-PHOSPHATE LYASE” (CHILDREN'S HOSPITAL & RESEARCH CENTER AT OAKLAND, priority 2006, published 2008)
Several values for one entry are separate records, joined by “and”; a condition that tells them apart may be missing. Equal entries are not always repeated.

Columns and labels:
[1] = tested on: HEK293 kidney cells stably overexpressing human SPL (hSPL); assay: Viability by MTT assay with daunorubicin, vector vs hSPL cells; type: cell-based; details: hSPL cells vs vector control; FIG. 2
Protocol: In an additional experiment, HEK293 cells expressing human SPL or vector control were treated with daunorubicin (DNR), and viability was determined by MTT assay. This assay relies on reduction of 3-(4,5-dimethylthiazol-2-yl)-2,5-diphenyl tetrazolium bromide (MTT reagent) by viable cells.

[2] = tested on: ischemia/reperfusion (I/R) injury; assay: Langendorff isolated heart ischemia/reperfusion, hearts from THI-treated mice; type: in vivo, C57BL6 male mice
Protocol: C57BL6 male mice were given THI in the water supply for 3 days. […] This example describes use of an isolated perfused heart model system for assessing cardioprotective effects of SPL inhibitors. […] Platinum electrodes connected to a stimulus generator are used to pace hearts at 360 beats/min. […] The balloon is inserted through the left atrium into the left ventricle, and pressures are recorded continuously on a chart recorder. Coronary flow is measured by collecting effluent from the coronary sinus. Noninvasive measurement of LV size and function are performed using standard echocardiographic methods in unanesthetized mice. LV dimensions, fractional shortening and ejection fraction are calculated before and at the end of a treatment period, before sacrifice in all animals.

bst1Δ cells = assay: Sphingosine sensitivity of yeast growth, bst1Δ strain; type: cell-based, Saccharomyces cerevisiae; details: concentrations as low as 10 μM sphingosine
Source text: (§1) A further test for SPL activity may be based upon functional complementation in the bst1Δ strain. It has been found, within the context of the present invention, that bst1Δ cells are highly sensitive to D-erythro-sphingosine. […] Such a level of sphingosine has no effect on the growth of wildtype cells.
(§2) A further test for SPL activity may be based upon functional complementation in the bst1Δ strain of Saccharomyces cerevisiae (Saba et al., 1997 J. Biol. Chem. 272:26087). It was been found, within the context of the presently disclosed embodiments, that bst1Δ cells were highly sensitive to D-erythro-sphingosine. […] Such a level of sphingosine had no effect on the growth of wildtype cells.

wildtype cells = assay: Sphingosine sensitivity of yeast growth, wildtype; type: cell-based, Saccharomyces cerevisiae; details: 10 μM sphingosine
Source text: as §1, §2

SPL induced apoptosis = details: cells overexpressing SPL; cited from earlier work
[3] = tested on: HEK294 cells expressing human SPL cDNA construct (hSPL); assay: Viability by MTT assay with doxorubicin, vector vs hSPL cells; type: cell-based; details: cells overexpressing SPL vs pcDNA3 vector; 24 h or 48 h; FIG. 1
Protocol: HEK294 cells expressing either pcDNA3 vector (PC) or a human SPL cDNA construct (hSPL) were incubated for 24 h (black bars) or 48 h (white bars) with doxorubicin, harvested and viability was determined by MTT assay. (Mosmann, J Immunol Methods, 1983, 65(1-2): 55-63).

## COc1cccc2c1C(=O)c1c(O)c3c(c(O)c1C2=O)C[C@@](O)(C(C)=O)C[C@@H]3O[C@H]1C[C@H](N)[C@H](O)[C@H](C)O1 [daunorubicin]
[1]
  sensitivity to daunorubicin (viability, MTT): more sensitive

## CC(=O)c1nc(C(O)C(O)C(O)CO)c[nH]1 (centres unmarked) [THI, 2-acetyl-4-tetrahydroxybutylimidazole]
[2]; after 50 min ischemia, 40 min reperfusion, control heart 35%
  size of infarction (tissue uptake of tetrazolium red, TTC): 17%
[2]; after 50 min no-flow ischemia, 40 min reperfusion, control heart 52
  LVEDP (LV end-diastolic pressure): 34 mmHg
[2]; average of 3 animals
  LVDP % Recovery, Ave.: 59.2%
  LVDP Baseline, Ave.: 133.0 mmHg
  LVDP Reperf. 40′, Ave.: 79.7 mmHg
[2]; individual animals, 50 min no-flow ischemia, 40 min reperfusion
  LVDP (Left Ventricular Developed Pressure), Reperf. 40′: 52 mmHg and 88 mmHg and 99 mmHg
[2]; individual animals, Reperf. 40′ vs Baseline
  LVDP % Recovery: 42.6% and 64.2% and 70.7%
[2]; individual animals, before ischemia
  LVDP (Left Ventricular Developed Pressure), Baseline: 122 mmHg and 137 mmHg and 140 mmHg

## CCCCCCCCCCCCC/C=C/[C@@H](O)[C@@H](N)CO [sphingosine, D-erythro-sphingosine]
bst1Δ cells
  growth of bst1Δ cells: completely inhibit
Wildtype cells
  growth of wildtype cells: no effect

## C[S+]([O-])c1ccc(-c2nc(-c3ccncc3)c(-c3ccc(F)cc3)[nH]2)cc1 (centres unmarked) [SB203580]
SPL induced apoptosis
  effect on SPL induced apoptosis: attenuation

## COc1cccc2c1C(=O)c1c(O)c3c(c(O)c1C2=O)C[C@@](O)(C(=O)CO)C[C@@H]3O[C@H]1C[C@H](N)[C@H](O)[C@H](C)O1 [doxorubicin]
[3]
  cell survival in the presence of doxorubicin: significantly reduced

## Cc1ccc(C(=O)Cn2c3c(sc2=N)CCCC3)cc1 [pifithrin α]
SPL induced apoptosis
  effect on SPL induced apoptosis: attenuation
